Laboratory results as given in patent publication US20190008848A1, “IDENTIFICATION OF ADDITIONAL ANTI-PERSISTER ACTIVITY AGAINST BORRELIA BURGDORFERI FROM AN FDA DRUG LIBRARY” (THE JOHNS HOPKINS UNIVERSITY, priority 2015, published 2019).
Structures can show the parent of a compound that is named as a salt. Where two headings read alike, the source gives them in different places. Bridge positions count the residues as written; N and C are the ends. Square brackets hold non-standard residues; d marks the D form. Peptide text beside a SMILES is read from it. * marks the point of attachment. Ileψ(thiazoline)Cys = CC[C@H](C)[C@H](N)C1=N[C@H](C(=O)*)CS1; dOrn = NCCC[C@@H](N)C(=O)O

What was measured:
[1] = test system: stationary phase B. burgdorferi; experiment: Residual viable B. burgdorferi by epifluorescence microscope counting after drug exposure; details: for viability at 50 µM: Borreliella burgdorferi, 168 h, read-out: Residual viable cells (Microscopy)
Method: (§1) Borrelia burgdorferi strain B31 (ATCC35210) was received from the […] (Manassas, Va., USA) and was grown in BSK-H medium (HiMedia Laboratories, Mumbai, India) and 6% rabbit serum (Sigma Aldrich, St. Louis, Mo., USA). The culture was filtered and sterilized using a […] and incubated in capped sterile 50 mL conical tubes (BD Biosciences, CA, USA) at 33° C. for 7 days without antibiotics until the culture reached stationary phase.
(§2) The cultures were examined using a Nikon Eclipse E800 microscope with differential interference contrast and epifluorescent illumination. The pictures were captured using a SPOT slider color camera. A SYBR Green I/PI assay was used to assess the viability of the bacterial sample using the ratio of live to dead B. burgdorferi (measured with green and red fluorescence, respectively) as measured by a plate reader.
(§3) Briefly, prediluted drug stock (10 μL) was added to 7 day old stationary phase B. burgdorferi culture (90 μL) to achieve a 50 μM final drug concentration per well. The plates were then incubated at 33° C. for 7 days at which point the SYBR/PI rapid viability assay was performed in a fluorescence plate reader to obtain the green-red fluorescence ratio.

[2] = test system: stationary phase B. burgdorferi; experiment: SYBR Green I/PI viability assay (drug library screen, plate reader); details: for viability at 50 µM: Borreliella burgdorferi, 168 h; for activity against stationary phase B. burgdorferi (in words): screen at 50 μM, 7 days; for Residual viable cells (SYBR Green/PI): Table 1; for Residual viable cells (SYBR/PI): Table 3
Method: as §1, §2, §3

[3] = read-out: Residual viable cells (SYBR Green/PI), Table 1, drugs 50 μM, 7 day old stationary phase cells treated for 7 days
[4] = read-out: Residual viable cells (SYBR/PI), Table 3, drugs 50 μM, 7-day old stationary phase cells treated for 7 days
[5] = read-out: Residual viable cells (SYBR Green/PI)
[6] = read-out: Residual viable cells (SYBR/PI)
[7] = Table 1, drugs 50 μM, 7 day old stationary phase cells treated for 7 days
[8] = drugs 50 μM, 7 day old stationary phase cells treated for 7 days
[9] = drugs 50 μM, 7-day old stationary phase cells treated for 7 days

Row | Molecule | viability at 50 µM [1] [%] | viability at 50 µM [2, 3] [%] | viability at 50 µM [2, 4] [%] | further results
1 | O=C(O)c1cn(-c2ccc(F)cc2)c2cc(N3CCNCC3)c(F)cc2c1=O [Sarafloxacin, Sarafloxacin HCl] | 50 | 47 | 47 | –
2 | C[C@@H]1CC[C@H]2[C@@H](C)C(=O)O[C@@H]3O[C@@]4(C)CC[C@@H]1[C@]32OO4 [Artemesinin] | 45 | 49 | 49 | activity against stationary phase B. burgdorferi (in words) [2]: good activity
3 | CO[C@H]1/C=C/O[C@@]2(C)Oc3c(C)c([O-])c4c(O)c(cc(O)c4c3C2=O)NC(=O)/C(C)=C\C=C\[C@H](C)[C@H](O)[C@@H](C)[C@@H](O)[C@@H](C)[C@H](OC(C)=O)[C@@H]1C.[Na+] [Rifamycin SV] | – | – | – | Residual viable cells (Microscopy) [1]: 60%
4 | C=C(NC(=O)C(=C)NC(=O)c1csc(C2=N[C@@H]3c4csc(n4)[C@H]4NC(=O)c5csc(n5)[C@H]([C@](C)(O)[C@@H](C)O)NC(=O)[C@H]5CSC(=N5)/C(=C/C)NC(=O)[C@H]([C@@H](C)O)NC(=O)c5csc(n5)[C@]3(CC2)NC(=O)[C@H](C)NC(=O)C(=C)NC(=O)[C@H](C)NC(=O)[C@H]([C@@H](C)CC)N[C@@H]2C=Cc3c([C@H](C)O)cc(nc3[C@H]2O)C(=O)O[C@@H]4C)n1)C(N)=O [Thiostrepton] | 66 | – | – | viability at 50 µM [2, 5]: 43%; viability at 50 µM [2, 6]: 43%
5 | C=CCCCCCCCCC(=O)O [Undecylenic acid] | 74 | – | 55 | –
6 | C[C@]1(Cn2ccnn2)[C@H](C(=O)O)N2C(=O)C[C@H]2S1(=O)=O [Tazobactam] | 56 | 54 | 54 | –
7 | ClC(Cl)=C(Cl)Cl [Tetrachloroethylene] | 53 | – | – | viability at 50 µM [2, 6]: 36%
8 | Cc1nc(NS(=O)(=O)c2ccc(N)cc2)oc1C [Sulfamoxole] | 55 | 57 | 57 | –
9 | C=CC1=C(C(=O)O)N2C(=O)[C@@H](NC(=O)/C(=N\OCC(=O)O)c3csc(N)n3)[C@H]2SC1 [Cefixime] | 56 | 56 | 56 | –
10 | C[C@H]1[C@H](NC(=O)/C(=N\OC(C)(C)C(=O)O)c2csc(N)n2)C(=O)N1S(=O)(=O)O [Aztreonam] | 50 | 55 | 55 | –
11 | Penimepicycline | – | – | – | Residual viable cells (Microscopy) [1]: 60%
12 | Mepartricin | – | – | – | Residual viable cells (Microscopy) [1, 7]: 60%; Residual viable cells (SYBR Green/PI) [2, 8]: 43%; Residual viable cells (SYBR/PI) [2, 9]: 43%; activity against stationary phase B. burgdorferi (in words) [2]: reasonable activity
13 | CN(C)c1ccc2nc3ccc(=[N+](C)C)cc-3sc2c1 [Methylene blue hydrate] | 40 | – | – | activity against B. burgdorferi persisters by careful microscopy analysis (in words) ([1]; coloured drugs verified by microscopy): high activity; activity against stationary phase B. burgdorferi (in words) [2]: good activity
14 | COc1ccc(C[C@H](N)C(=O)N[C@H]2[C@@H](O)[C@H](n3cnc4c(N(C)C)ncnc43)O[C@@H]2CO)cc1 [Puromycin] | 48 | 65 | 65 | –
15 | CC[C@H](C)[C@H](N)C1=N[C@H](C(=O)N[C@@H](CC(C)C)C(=O)N[C@H](CCC(=O)O)C(=O)N[C@H](C(=O)N[C@H]2CCCCNC(=O)[C@H](CC(N)=O)NC(=O)[C@@H](CC(=O)O)NC(=O)[C@H](Cc3cnc[nH]3)NC(=O)[C@@H](Cc3ccccc3)NC(=O)[C@H]([C@@H](C)CC)NC(=O)[C@@H](CCCN)NC2=O)[C@@H](C)CC)CS1 [Bacitracin, Bacitracin zinc salt] ({Ileψ(thiazoline)Cys}-L[dE]IK[dOrn]I[dF]H[dD]N; lactam 4-C) | 60 | 47 | 47 | –
16 | c1ccc2c(c1)Nc1ccccc1S2 [Phenothiazine] | 53 | – | – | viability at 50 µM [2, 5]: 54%; viability at 50 µM [2, 6]: 54%
17 | CO/N=C(\C(=O)N[C@@H]1C(=O)N2C(C(=O)O)=C(COC(N)=O)CS[C@H]12)c1ccco1 [Cefuroxime] | 49 | 43 | – | –
18 | CC(C)(C)C(=O)C(Oc1ccc(Cl)cc1)n1ccnc1 (stereo not shown) [Climbazole] | 71 | – | 62 | activity against stationary phase B. burgdorferi (in words) [2]: reasonable activity
19 | CCCCCCCCCC(=O)N[C@@H](Cc1c[nH]c2ccccc12)C(=O)N[C@H](CC(N)=O)C(=O)N[C@@H](CC(=O)O)C(=O)N[C@@H]1C(=O)NCC(=O)N[C@@H](CCCN)C(=O)N[C@@H](CC(=O)O)C(=O)N[C@H](C)C(=O)N[C@@H](CC(=O)O)C(=O)NCC(=O)N[C@H](CO)C(=O)N[C@@H]([C@H](C)CC(=O)O)C(=O)N[C@@H](CC(=O)c2ccccc2N)C(=O)O[C@@H]1C [Daptomycin] | 35 | 28 | 28 | –
20 | CC1(C)S[C@@H]2[C@H](NC(=O)[C@H](N)c3ccc(O)cc3)C(=O)N2[C@H]1C(=O)O [Amoxicillin] | 76 | 76 | 76 | –
21 | Nc1nc2c(ncn2CCC(CO)CO)c(=O)[nH]1 [Penciclovir] | 60 | 64 | 64 | –

Row | Molecule | viability at 50 µM [1] [%] | viability at 50 µM [2, 3] [%] | viability at 50 µM [2, 4] [%] | further results
22 | C[C@H]1c2cccc(O)c2C(=O)C2=C(O)[C@]3(O)C(=O)C(C(N)=O)=C(O)[C@@H](N(C)C)[C@@H]3[C@@H](O)[C@@H]21 [Doxycycline] | 75 | 67 | 67 | –
23 | CCc1nc(N)nc(N)c1-c1ccc(Cl)cc1 [Pyrimethamine] | 55 | 45 | 45 | –
24 | CC[C@H]1OC(=O)[C@H](C)[C@@H](O[C@H]2C[C@@](C)(OC)[C@@H](O)[C@H](C)O2)[C@H](C)[C@@H](O[C@@H]2O[C@H](C)C[C@H](N(C)C)[C@H]2O)[C@](C)(O)C[C@@H](C)/C(=N\OCOCCOC)[C@H](C)[C@@H](O)[C@]1(C)O [Roxithromycin] | 65 | 62 | 62 | –
25 | c1ccc(-c2ccc(C(c3ccccc3)n3ccnc3)cc2)cc1 (stereo not shown) [Bifonazole] | 50 | 48 | 48 | activity against stationary phase B. burgdorferi (in words) [2]: reasonable activity
26 | CN[C@@H]1C[C@@H](c2ccc(Cl)c(Cl)c2)c2ccccc21.Cl [Indatraline, Indatraline hydrochloride] | – | – | – | Residual viable cells (Microscopy) [1, 7]: 43%; Residual viable cells (Microscopy) ([1]; Table 3, drugs 50 μM, 7-day old stationary phase cells treated for 7 days): 43%; Residual viable cells (SYBR Green/PI) [2, 8]: 51%; Residual viable cells (SYBR/PI) [2, 9]: 51%; activity against stationary phase B. burgdorferi (in words) [2]: high activity
27 | CN1CCCN=C1/C=C/c1cccc(O)c1 [Oxantel] | 63 | 44 | 44 | –
28 | Nc1nc(=O)[nH]cc1F [Flucytosine (5-Fluorocytosine), 5-Fluorocytosine] | 66 | – | 68 | –
29 | CCN(CC)CCNc1ccc(CO)c2sc3ccccc3c(=O)c12 [Hycanthone] | – | 45 | 45 | –
30 | O=c1[nH]c(=O)n([C@H]2C[C@H](O)[C@@H](CO)O2)cc1C(F)(F)F [Trifluridine] | – | – | 55 | –
31 | Cc1ccnc2c1NC(=O)c1cccnc1N2C1CC1 [Nevirapine] | – | 51 | 51 | activity against stationary phase B. burgdorferi (in words) [2]: good activity
32 | NC(=O)c1cc[n+](CC2=C(C(=O)O)N3C(=O)[C@@H](NC(=O)[C@@H](c4ccccc4)S(=O)(=O)[O-])[C@H]3SC2)cc1 [Cefsulodin] | – | 60 | 60 | –
33 | Clc1ccc(CO/N=C(\Cn2ccnc2)c2ccc(Cl)cc2Cl)c(Cl)c1 [Oxiconazole nitrate] | – | 62 | 62 | –
34 | CN1CCN(c2c(F)cc3c(=O)c(C(=O)O)cn(CCF)c3c2F)CC1 [Fleroxacin] | – | – | 73 | –
35 | NC1CCN(c2nc3c(cc2F)c(=O)c(C(=O)O)cn3-c2ccc(F)cc2F)C1 (stereo not shown) [Tosufloxacin] | – | 57 | 57 | –
36 | CC(=O)N[C@H]1[C@H]([C@H](O)[C@H](O)CO)OC(C(=O)O)=C[C@@H]1N=C(N)N [Zanamivir] | 60 | 49 | 49 | activity against stationary phase B. burgdorferi (in words) [2]: good activity
37 | Cc1nc(C)c(Cl)c(O)c1Cl [Clopidol] | – | – | 57 | –
38 | CO[C@H]1/C=C/O[C@@]2(C)Oc3c(C)c(O)c4c(O)c(c5c(nc6cc(C)ccn65)c4c3C2=O)NC(=O)/C(C)=C\C=C\[C@H](C)[C@H](O)[C@@H](C)[C@@H](O)[C@@H](C)[C@H](OC(C)=O)[C@@H]1C [Rifaximin] | – | – | 51 | –
39 | O=C(O)CCNC(=O)c1ccccc1 [Betamipron (n-benzoyl-b-alanine), n-benzoyl-b-alanine] | – | – | 68 | –
40 | Nc1ccc([As](=O)(O)O)cc1 [p-Arsanilic acid] | – | – | – | Residual viable cells (SYBR/PI) [2, 9]: 49%
41 | CC(C)Cn1cnc2c(N)nc3ccccc3c21 [Imiquimod] | – | – | – | viability at 50 µM [2, 6]: 64%
